We go through five compounds from ChEMBL document CHEMBL1909046, “DrugMatrix in vitro pharmacology data”.

pIC50, pKi: −log10 of the molar value.

Data set [1] has as its target Tyrosine-protein kinase Lck (Homo sapiens, UniProt P06239). Nature of the data set: DRUGMATRIX: Protein Tyrosine Kinase, LCK enzyme inhibition (substrate: Poly(Glu:Tyr)). It counts as cell-based, Insect cells. The following applies: insect cells; Not Active = under 50% inhibition at 10 µM.
Data set [2] concerns the target T1, Alpha-1D adrenergic receptor (Homo sapiens, UniProt P25100). Further: in other assays of this panel Not Active means under 50% inhibition at 10 µM.
T1 sequence (P25100 whole entry): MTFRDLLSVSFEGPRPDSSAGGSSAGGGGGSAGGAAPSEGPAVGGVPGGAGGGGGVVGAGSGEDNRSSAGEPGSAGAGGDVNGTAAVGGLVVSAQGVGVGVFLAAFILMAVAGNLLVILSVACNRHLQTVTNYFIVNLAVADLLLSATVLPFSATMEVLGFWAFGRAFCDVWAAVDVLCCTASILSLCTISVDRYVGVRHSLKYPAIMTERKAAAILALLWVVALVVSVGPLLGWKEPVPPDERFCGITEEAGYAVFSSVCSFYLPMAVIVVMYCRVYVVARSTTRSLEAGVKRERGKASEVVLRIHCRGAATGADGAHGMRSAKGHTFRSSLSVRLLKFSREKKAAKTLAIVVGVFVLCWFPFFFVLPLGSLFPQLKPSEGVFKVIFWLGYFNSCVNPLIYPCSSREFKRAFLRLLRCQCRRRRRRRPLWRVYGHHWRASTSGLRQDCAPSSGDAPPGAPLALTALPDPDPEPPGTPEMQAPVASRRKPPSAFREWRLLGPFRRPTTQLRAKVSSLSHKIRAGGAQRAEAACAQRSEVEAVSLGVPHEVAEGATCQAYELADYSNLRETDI
It counts as cell membranes, HEK293, Membrane. As to conditions: for IC50: hek293.

Another data set addresses T2, Neutrophil elastase (Homo sapiens, UniProt P08246).
T2 sequence (P08246 whole entry): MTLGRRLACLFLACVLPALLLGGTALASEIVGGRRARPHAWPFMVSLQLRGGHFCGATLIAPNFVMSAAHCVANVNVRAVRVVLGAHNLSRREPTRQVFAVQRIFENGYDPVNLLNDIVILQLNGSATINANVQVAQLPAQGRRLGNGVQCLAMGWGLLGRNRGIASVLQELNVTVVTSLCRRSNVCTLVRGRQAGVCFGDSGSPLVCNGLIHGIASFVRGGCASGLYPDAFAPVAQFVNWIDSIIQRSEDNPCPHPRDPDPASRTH
It counts as tissue-based.

For a further data set, the target named is Cytochrome P450 2E1 (Homo sapiens, UniProt P05181). As to conditions: bti-tn-5b1-4. Further: in other assays of this panel Not Active means under 50% inhibition at 10 µM.
Cytochrome P450 2E1, sequence (P05181 whole entry): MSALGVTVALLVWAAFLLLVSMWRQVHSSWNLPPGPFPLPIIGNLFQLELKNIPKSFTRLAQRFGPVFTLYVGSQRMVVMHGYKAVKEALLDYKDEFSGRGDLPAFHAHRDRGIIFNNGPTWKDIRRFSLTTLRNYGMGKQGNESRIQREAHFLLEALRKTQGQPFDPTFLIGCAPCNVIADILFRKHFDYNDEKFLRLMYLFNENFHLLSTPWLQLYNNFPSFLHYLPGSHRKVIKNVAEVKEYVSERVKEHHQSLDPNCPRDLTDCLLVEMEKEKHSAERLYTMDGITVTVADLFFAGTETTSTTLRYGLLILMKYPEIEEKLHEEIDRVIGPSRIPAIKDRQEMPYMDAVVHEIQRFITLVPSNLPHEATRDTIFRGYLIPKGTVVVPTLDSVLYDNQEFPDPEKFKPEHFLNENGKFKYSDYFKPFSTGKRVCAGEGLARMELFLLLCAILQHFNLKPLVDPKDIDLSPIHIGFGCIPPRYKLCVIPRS
Data set [3] is described as follows: DRUGMATRIX: ATPase, Na+/K+ enzyme inhibition (substrate: ATP). The following applies: Not Active = under 50% inhibition at 10 µM. It counts as tissue-based, Sus scrofa, Heart.
In data set [4] the target is T3, Amine oxidase [flavin-containing] A (Homo sapiens, UniProt P21397).
T3 sequence (P21397 whole entry): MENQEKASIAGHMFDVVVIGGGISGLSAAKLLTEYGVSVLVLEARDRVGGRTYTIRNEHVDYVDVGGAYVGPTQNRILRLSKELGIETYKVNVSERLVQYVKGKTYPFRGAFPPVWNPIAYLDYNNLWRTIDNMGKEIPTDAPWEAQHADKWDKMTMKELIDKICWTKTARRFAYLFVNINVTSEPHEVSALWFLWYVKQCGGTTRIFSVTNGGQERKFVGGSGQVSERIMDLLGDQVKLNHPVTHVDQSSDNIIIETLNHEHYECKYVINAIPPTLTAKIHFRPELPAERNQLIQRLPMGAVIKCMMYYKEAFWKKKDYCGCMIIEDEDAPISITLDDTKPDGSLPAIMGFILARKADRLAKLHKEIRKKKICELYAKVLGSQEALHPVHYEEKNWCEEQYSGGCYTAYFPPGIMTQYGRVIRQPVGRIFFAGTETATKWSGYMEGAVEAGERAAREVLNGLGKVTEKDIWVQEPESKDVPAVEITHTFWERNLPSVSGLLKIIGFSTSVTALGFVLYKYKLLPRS
Nature of the data set: DRUGMATRIX: Monoamine Oxidase MAO-A enzyme inhibition (substrate: Kynuramine). Details: species or system BTI-TN-5B1-4. As to conditions: bti-tn-5b1-4; Not Active = under 50% inhibition at 10 µM.

In data set [5] the target is T4, Cysteinyl leukotriene receptor 1 (Homo sapiens, UniProt Q9Y271). Further: in other assays of this panel Not Active means under 50% inhibition at 10 µM.
T4 sequence (Q9Y271 whole entry): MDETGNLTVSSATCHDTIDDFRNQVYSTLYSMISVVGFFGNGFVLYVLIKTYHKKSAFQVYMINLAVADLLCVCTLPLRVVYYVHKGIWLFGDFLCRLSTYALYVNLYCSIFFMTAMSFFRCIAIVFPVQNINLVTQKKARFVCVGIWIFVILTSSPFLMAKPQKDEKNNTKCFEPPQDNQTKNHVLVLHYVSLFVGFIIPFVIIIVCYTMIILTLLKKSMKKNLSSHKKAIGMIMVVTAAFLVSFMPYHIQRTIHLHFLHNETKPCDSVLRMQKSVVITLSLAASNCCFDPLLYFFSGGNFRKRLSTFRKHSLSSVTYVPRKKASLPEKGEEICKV
In kind it is cell membranes, CHO-K1, Membrane. As to conditions: cho-k1.

Tyrosine-protein kinase Lck, sequence (P06239 whole entry): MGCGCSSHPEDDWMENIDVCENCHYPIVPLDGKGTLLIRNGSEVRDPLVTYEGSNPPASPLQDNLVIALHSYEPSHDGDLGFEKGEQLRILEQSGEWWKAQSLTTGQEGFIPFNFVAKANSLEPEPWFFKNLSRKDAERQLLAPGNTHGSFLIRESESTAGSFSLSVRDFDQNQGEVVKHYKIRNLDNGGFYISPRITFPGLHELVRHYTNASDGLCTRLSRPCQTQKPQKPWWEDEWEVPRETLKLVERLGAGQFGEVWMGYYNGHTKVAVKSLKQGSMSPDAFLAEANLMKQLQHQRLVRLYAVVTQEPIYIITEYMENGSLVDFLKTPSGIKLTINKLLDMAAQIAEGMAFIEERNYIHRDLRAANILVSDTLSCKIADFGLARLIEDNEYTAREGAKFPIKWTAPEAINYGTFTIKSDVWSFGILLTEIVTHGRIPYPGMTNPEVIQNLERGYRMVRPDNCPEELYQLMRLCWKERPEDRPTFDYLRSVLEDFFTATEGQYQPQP

In the case of `C=CCN1CC[C@]23c4c5ccc(O)c4O[C@H]2/C(=N/N=C2\CC[C@@]4(O)[C@H]6Cc7ccc(O)c8c7[C@@]4(CCN6CC=C)[C@H]2O8)CC[C@@]3(O)[C@H]1C5` [NALOXONAZINE], the IC50 entry (in data set [1]; in data set [2]; against Neutrophil elastase; against Cytochrome P450 2E1; in data set [3]; in data set [4]) was “Not Active” throughout. In addition, the IC50 entry in data set [5] is on record as “Not Active”. Besides, the Ki result (at Cytochrome P450 2E1; in data set [3]) was “Not Active” throughout.

For the compound `Cc1ccnc2c1NC(=O)c1cccnc1N2C1CC1` [NEVIRAPINE], the IC50 result (in data set [1]; in data set [2]; against Neutrophil elastase; at Cytochrome P450 2E1; in data set [3]; in data set [4]) was “Not Active” each time. Also, the IC50 entry in data set [5] was “Not Active”. Moreover, the Ki result (at Cytochrome P450 2E1; in data set [3]) was “Not Active” in each case.

As for `NCC(CC(=O)O)c1ccc(Cl)cc1` (stereo unspecified) [BACLOFEN], the IC50 result (in data set [1]; in data set [2]; against Neutrophil elastase; at Cytochrome P450 2E1; in data set [3]; in data set [4]) was “Not Active” each time. Also, the IC50 entry in data set [5] is “Not Active”. In addition, the Ki entry (on Cytochrome P450 2E1; in data set [3]) was “Not Active” each time.

As to `CO[C@H]1O[C@@H]2O[C@@]3(C)CC[C@H]4[C@H](C)CC[C@@H]([C@H]1C)[C@@]24OO3`, the IC50 entry (in data set [1]; in data set [2]; at Neutrophil elastase; against Cytochrome P450 2E1; in data set [3]; in data set [4]) was “Not Active” in each case. Further, the IC50 result in data set [5] is reported as “Not Active”. Moreover, the Ki entry (on Cytochrome P450 2E1; in data set [3]) was “Not Active” each time.

As to `CC(CN1c2ccccc2Sc2ccccc21)N(C)C` (stereo unspecified) [PROMETHAZINE], the IC50 entry (in data set [1]; on Neutrophil elastase; against Cytochrome P450 2E1; in data set [3]; in data set [4]; in data set [5]) was “Not Active” throughout. In addition, the negative-log IC50 (pIC50) in data set [2] (read-out: IC50) is 6.74. Moreover, the pKi in data set [2] (read-out: Ki) was 7.05. The Ki entry (on Cytochrome P450 2E1; in data set [3]) was “Not Active” each time.

Broadly, the pIC50 is −log10 of the IC50, conventionally taken in molar units. As a reminder, the pKi is −log10 of the Ki, conventionally taken in molar units.
